Reference: paper PMC12314052 (Nature Communications, 2025)
Substitutions are numbered along the chain they refer to.

Assays:
hM5 mAChR [1] = assay: [3H]-NMS equilibrium radioligand binding, interaction of ACh and allosteric modulator; set-up: species or system human
Experimental: FlpIn CHO cells stably expressing WT hM5 mAChR or mutants were plated at 25,000 cells per well in 96-well isoplates (PerkinElmer Life Sciences) and incubated overnight at 37 °C in a 5% CO2 incubator. The following day, the cells were washed with PBS and incubated in 20 mM HEPES, 100 mM NaCl, 10 mM MgCl2, pH 7.4. For saturation binding experiments, the cells were incubated with varying concentrations of the orthosteric antagonist [^3H]-N-methylscopolamine ([^3H]-NMS; specific activity, 70 Ci/mmol, Perkin Elmer) in a final volume of 100 μL for 6 hours at room temperature. […] Radioactivity was measured by adding 100 μL of Optiphase Supermix scintillation fluid (PerkinElmer) and counted using a MicroBeta^2 Plate Counter (PerkinElmer Life Sciences).
All data were analysed using GraphPad Prism 10 (GraphPad Software, San Diego, CA). The interaction between orthosteric agonist and allosteric modulator in functional assays was analysed using an operational model of allosterism to determine functional modulation (log αβ) and affinity (pKB) parameters. Radioligand saturation binding experiments with [^3H]-NMS to determine Bmax and pKD values were determined using a one site – specific binding equation in Prism 10^31. […]

hM5 mAChR [2] = target: T1, hM5 mAChR (Homo sapiens, UniProt P08912); assay: Inositol monophosphate (IP1) accumulation assay, ML380-ACh interaction; type: cell-based; conditions: WT M5 mAChR, CHO cells
T1 construct: expressed in transfected cells
T1 sequence (P08912 1-532): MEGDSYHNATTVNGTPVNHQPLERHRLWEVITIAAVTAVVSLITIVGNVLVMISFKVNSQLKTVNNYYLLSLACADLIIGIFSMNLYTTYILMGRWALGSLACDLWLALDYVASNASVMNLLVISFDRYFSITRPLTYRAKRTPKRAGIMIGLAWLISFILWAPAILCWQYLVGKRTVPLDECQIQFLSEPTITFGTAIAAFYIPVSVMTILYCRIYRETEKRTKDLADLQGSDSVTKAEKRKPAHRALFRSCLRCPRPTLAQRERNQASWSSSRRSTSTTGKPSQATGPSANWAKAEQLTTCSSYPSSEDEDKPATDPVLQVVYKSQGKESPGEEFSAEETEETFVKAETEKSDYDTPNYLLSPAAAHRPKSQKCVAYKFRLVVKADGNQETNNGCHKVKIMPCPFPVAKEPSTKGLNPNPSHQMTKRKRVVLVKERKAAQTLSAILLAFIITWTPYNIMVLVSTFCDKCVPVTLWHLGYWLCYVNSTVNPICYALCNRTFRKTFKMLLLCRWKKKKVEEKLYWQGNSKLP
Experimental: (§1) FlpIn CHO cells stably expressing either WT or mutant hM5 mAChR were seeded in clear, flat bottom 96-well plates at a density of 10,000−25,000 cells per well (depending on the cell line) one day prior to the assay. The optimal cell density for each line was chosen based on achieving an IP1 response that fell within the linear range of the IP1 standard curve. On the assay day, the medium was replaced with stimulation buffer (Hanks’ balanced salt solution (HBSS) containing 10 mM HEPES, 1.3 mM CaCl2, and 30 mM LiCl, pH 7.4) and allowed to incubate for 60 minutes at 37 °C before ligand stimulation. After this pre-incubation, the buffer was replaced, and cells were exposed to ligands for 60 minutes at 37 °C in a 5% CO2 atmosphere, with a total assay volume of 100 μL. Following the 60-minute stimulation, ligands were removed by rapid removal of buffer. Cells were lysed by freeze-thawing in 30 μL of stimulation buffer. IP1 accumulation was then quantified using the HTRF IP-One assay kit (Cisbio), with fluorescence measured on an EnVision multilabel plate reader (PerkinElmer).
(§2) All data were analysed using GraphPad Prism 10 (GraphPad Software, San Diego, CA). The interaction between orthosteric agonist and allosteric modulator in functional assays was analysed using an operational model of allosterism to determine functional modulation (log αβ) and affinity (pKB) parameters. Radioligand saturation binding experiments with [^3H]-NMS to determine Bmax and pKD values were determined using a one site – specific binding equation in Prism 10^31. For the radioligand binding interaction of orthosteric agonist with various concentrations of allosteric modulator, the data were fit to an allosteric ternary complex model to derive pKB and α binding cooperativity parameters. All affinity, potency, cooperativity, and efficacy parameters were estimated as logarithms. To ensure model convergence in all instances, allosteric parameters were determined from the respective allosteric models, which were globally fitted to all individual datasets for each allosteric modulator at each receptor construct. […]

hM5 mAChR [3] = assay: as above; type: cell-based, human; conditions: ECV allosteric site alanine mutants of M5 mAChR, CHO cells
Experimental: as §1, §2

hM5 mAChR [4] = target: T2, hM5 mAChR (Homo sapiens, UniProt P08912, A113V/G152A/L156V); assay: as above; type: cell-based; conditions: M5 EH4 pocket mutant (A113V, G152A, L156V), CHO cells
T2 construct: expressed in transfected cells
T2 sequence (P08912 1-532 A113V/G152A/L156V): T1 sequence (P08912 1-532) with A113V, G152A, L156V
Experimental: as §1, §2

ACh-bound M5 mAChR = target: T3, ACh-bound M5 mAChR (Homo sapiens, UniProt P08912); assay: Binding affinity for the ACh-bound receptor (chemical probe statement); conditions: determined in this study and others
T3 sequence (P08912 1-532): T1 sequence (P08912 1-532)

[5] = cited from earlier work
[6] = tested on: Gαq-coupled mAChRs (M1, M3, M5); conditions: M1, M3, M5 mAChRs ref 27; cited from earlier work

SMILES	ML380 cooperativity with ACh versus WT (hM5 mAChR [1]; M5/M2 TM1,7,h8 chimera)	ML380's ability to modulate ACh binding (hM5 mAChR [1]; M5/M2 TM2,3,4 and M5/M2 TM3,4,5 chimeras (swapping TM2-5))	Activity of ML380 and cooperativity with ACh (hM5 mAChR [2])	ML380 function at ECV alanine mutants (hM5 mAChR [3])	Change in ML380 affinity (pKB) compared to WT (hM5 mAChR [4])	Kd (ACh-bound M5 mAChR) [nM]	CNS penetration [5]	Partition coefficients ([5]; limited in vivo utility ref 25)	Effect on ACh signalling [6]
CCN(Cc1ccccc1C(F)(F)F)C(=O)C1CCN(S(=O)(=O)c2ccc3[nH]ncc3c2)CC1 [ML380, 1-((1H-indazol-5-yl)sulfoneyl)-N-ethyl-N-(2-(trifluoromethyl)benzyl)piperidine-4-carboxamide]	increased	completely abolished	both agonism and positive cooperativity with ACh	retained its ability to bind, activate, and modulate receptor function	no significant change in affinity	~575	penetrate the CNS	poor	
O=C1C(=O)N(Cc2ccc(Br)cc2)c2ccccc21 [VU0119498]									enhanced
